# Test results: patent US20250313539A1, “Alpha, Beta-UNSATURATED AMIDE COMPOUND, AND PREPARATION METHOD THEREFOR, AND PHARMACEUTICAL COMPOSITION AND USE THEREOF” (SHANGHAI INSTITUTE OF MATERIA MEDICA, CHINESE ACADEMY OF …, priority 2022, published 2025)
# Values joined by “and” are separate entries in the source; they are usually repeats but may differ in a detail not shown here. Equal entries are not always repeated. Where two headings read alike, the source gives them in different places.
# Tests used:
# [1] = tested on: cerebral blood flow in mice; experiment: laser speckle test blood flow model, improvement of cerebral blood flow in mice; type: in vivo; settings: injected intraperitoneally, within 60 minutes after administration vs before; for change in vivo at 20 mg/kg: dose of 20 mg/kg
# Description: We used a laser speckle test blood flow model to test the activity of compounds in improving cerebral blood flow in mice. The principle is to measure the intensity changes of flowing blood through laser speckle technology, reflecting real-time cerebral blood flow; By comparing the changes in blood flow before and after administration in mice, the effect of compounds on improving blood flow can be detected.
# The experimental mice were anesthetized for 30 seconds and fixed on a rack. After waiting for 2 minutes for the baseline light intensity data to stabilize, the brain blood flow light intensity data of the mice were recorded for 10 minutes without administration. Subsequently, the test compound was injected intraperitoneally and the cerebral blood flow and light intensity data of mice were recorded within 60 minutes after administration. Comparing the changes in light intensity before and after administration can reveal the degree of changes in cerebral blood flow in mice.
# Through the laser speckle model mentioned above, we conducted preliminary tests on the activity of the compound in improving cerebral blood flow in mice. In this experiment, ferulic acid (FA) was used as a positive control. Multiple compounds have shown significant improvement effects on cerebral blood flow in this model. At a dose of 5 mg/kg, compound 9 can increase cerebral blood flow in mice by about 10%, and compound 16 can increase it by about 20%. At a dose of 20 mg/kg, compounds 30 and 59 increased mouse cerebral blood flow by about 10%, compounds 5, 6, 26, 28, 29, 35, 43, and 58 all increased mouse cerebral blood flow by about 20%, compounds 16, 57, and 86 increased mouse cerebral blood flow by about 30%, compounds 27, 84, and 104 increased it by about 40%, and compound 83 increased mouse cerebral blood flow by 50% to 60%. Overall, the patented compound has good development prospects.
# [2] = pharmacokinetic parameters in mice (plasma, LC-MS/MS); type: in vivo, Male ICR (CD-1) mice; settings: male, ICR (CD-1), mouse; for MRT inf: read-out: MRT0-∞; for bioavailability: read-out: F (oral bioavailability)
# Procedure: Male ICR (CD-1) mice were divided into two groups, with three mice in each group. […] intravenously injected with 5 mg/kg of the test substance, blood was collected before administration, and 0.25 h, 0.5 h, 1 h, 2 h, 4 h, 8 h, and 24 hours after administration, respectively, and centrifuged immediately to obtain plasma, and the drug concentration in the plasma was determined using liquid chromatography tandem mass spectrometry.
# [3] = drug concentration in brain tissue, plasma and CSF after oral administration in mice; type: in vivo
# Description: Compound 27 has good brain tissue drug distribution after oral administration in mice, with a B/P of approximately 0.7.
# [4] = Mus musculus, ip, 1 h, read-out: increase of cerebral blood flow in mice
# [5] = PO 20 mg/kg, 15 min, individual animals 13-15
# [6] = PO 20 mg/kg, 30 min, individual animals 16-18
smiles,measurement,setting,value
"COc1cccc(/C=C/C(=O)N2CCOC2=O)c1 [Example 5, (E)-3-(3-(3-methoxyphenyl)acryloyl)oxazolidin-2-one]",change in vivo at 20 mg/kg,[1]; [4],~20%
"COc1ccc(/C=C/C(=O)N2CCOC2=O)cc1 [Example 6, (E)-3-(3-(4-methoxyphenyl)acryloyl)oxazolidin-2-one]",change in vivo at 20 mg/kg,[1]; [4],~20%
O=C(/C=C/c1ccc(C(F)(F)F)cc1)N1CCOC1=O [Example 9],increase of cerebral blood flow in mice,[1]; dose of 5 mg/kg,about 10%
"O=C(/C=C/c1cccc(Oc2ccccc2)c1)N1CCOC1=O [Example 16, (E)-3-(3-(3-phenoxyphenyl)acryloyl)oxazolidin-2-one]",change in vivo at 5 mg/kg,"[1]; Mus musculus, ip, 1 h, dose of 5 mg/kg, read-out: increase of cerebral blood flow in mice",~20%
same,change in vivo at 20 mg/kg,[1]; [4],~30%
"O=C(/C=C/c1ccccc1C(F)(F)F)N1C(=O)OCC1c1ccccc1 (stereo not drawn) [Example 26, (E)-3-(3-(2-trifluoromethylphenyl)acryloyl)-4-phenyloxazolidin-2-one]",change in vivo at 20 mg/kg,[1]; [4],~20%
"O=C(/C=C/c1ccccc1C(F)(F)F)N1C(=O)OC[C@@H]1c1ccccc1 [Example 27, (S, E)-3-(3-(2-trifluoromethylphenyl)acryloyl)-4-phenyloxazolidin-2-one]",AUC(0-inf),[2]; iv-5 mg/kg,805 ng·h/mL
same,AUC(0-t),[2]; iv-5 mg/kg,790 ng·h/mL
same,clearance,[2]; iv-5 mg/kg,104 mL/min/kg
same,half-life,[2]; iv-5 mg/kg,2.08 h
same,MRT inf,[2]; iv-5 mg/kg,1.04 h
same,AUC(0-inf),[2]; po-20 mg/kg,650 ng·h/mL
same,AUC(0-t),[2]; po-20 mg/kg,465 ng·h/mL
same,Cmax,[2]; po-20 mg/kg,104 ng/mL
same,Tmax,[2]; po-20 mg/kg,1 h
same,half-life,[2]; po-20 mg/kg,4.01 h
same,bioavailability,[2]; po-20 mg/kg vs iv-5 mg/kg,14.7%
same,MRT inf,[2]; po-20 mg/kg,6.12 h
same,change in vivo at 20 mg/kg,[1]; [4],~40%
same,concentration at 15 min,"[3]; ICR (CD-1), mouse, brain, po, 20 mg/kg, PO 20 mg/kg, 15 min, mean, read-out: Brain",50.9 ng/g
same,concentration at 30 min,"[3]; ICR (CD-1), mouse, brain, po, 20 mg/kg, PO 20 mg/kg, 30 min, mean, read-out: Brain",43.7 ng/g
same,Kp at 15 min,"[3]; ICR (CD-1), mouse, brain/heart plasma, po, 20 mg/kg, PO 20 mg/kg, 15 min, individual animals 13-15, read-out: Brain/H. Plasma",0.7
same,Kp at 15 min,"[3]; ICR (CD-1), mouse, brain/heart plasma, po, 20 mg/kg, PO 20 mg/kg, 15 min, mean, read-out: Brain/H. Plasma",0.7
same,Kp at 30 min,"[3]; ICR (CD-1), mouse, brain/heart plasma, po, 20 mg/kg, PO 20 mg/kg, 30 min, mean, read-out: Brain/H. Plasma",0.7
same,Kp at 15 min,"[3]; ICR (CD-1), mouse, brain/plasma, po, 20 mg/kg, after oral administration in mice, read-out: B/P (brain tissue drug distribution)",~0.7
same,concentration at 15 min,"[3]; ICR (CD-1), mouse, heart plasma, po, 20 mg/kg, PO 20 mg/kg, 15 min, mean, read-out: Heart Plasma",70.4 ng/mL
same,concentration at 30 min,"[3]; ICR (CD-1), mouse, heart plasma, po, 20 mg/kg, PO 20 mg/kg, 30 min, mean, read-out: Heart Plasma",61.9 ng/mL
same,concentration at 15 min,"[3]; ICR (CD-1), mouse, po, 20 mg/kg, PO 20 mg/kg, 15 min, mean, read-out: CSF",3.8 ng/mL
same,concentration at 30 min,"[3]; ICR (CD-1), mouse, po, 20 mg/kg, PO 20 mg/kg, 30 min, mean, read-out: CSF",3.2 ng/mL
same,concentration at 15 min,"[3]; ICR (CD-1), mouse, portal vein plasma, po, 20 mg/kg, PO 20 mg/kg, 15 min, individual animals 13-15, read-out: Portal Vein Plasma",320 ng/mL
same,concentration at 15 min,"[3]; ICR (CD-1), mouse, portal vein plasma, po, 20 mg/kg, PO 20 mg/kg, 15 min, mean, read-out: Portal Vein Plasma",371 ng/mL
same,concentration at 30 min,"[3]; ICR (CD-1), mouse, portal vein plasma, po, 20 mg/kg, PO 20 mg/kg, 30 min, mean, read-out: Portal Vein Plasma",373 ng/mL
same,Brain,[3]; [5],29.4 ng/g and 75.4 ng/g and 47.9 ng/g
same,Brain/H. Plasma,[3]; [5],0.65 and 0.91
same,CSF,[3]; [5],1.63 ng/mL and 8.37 ng/mL and 1.40 ng/mL
same,Heart Plasma,[3]; [5],41.9 ng/mL and 117 ng/mL and 52.7 ng/mL
same,Portal Vein Plasma,[3]; [5],375 ng/mL and 418 ng/mL
same,Brain,[3]; [6],19.4 ng/g and 38.8 ng/g and 44.3 ng/g
same,Brain/H. Plasma,[3]; [6],0.56 and 1.37 and 0.49
same,CSF,[3]; [6],0.670 ng/mL and 0.770 ng/mL and 5.94 ng/mL
same,Heart Plasma,[3]; [6],34.2 ng/mL and 28.2 ng/mL and 89.5 ng/mL
same,Portal Vein Plasma,[3]; [6],252 ng/mL and 171 ng/mL and 704 ng/mL
"O=C(/C=C/c1ccccc1C(F)(F)F)N1C(=O)OC[C@H]1c1ccccc1 [Example 28, (R, E)-3-(3-(2-trifluoromethylphenyl)acryloyl)-4-phenyloxazolidin-2-one]",change in vivo at 20 mg/kg,[1]; [4],~20%
"O=C(/C=C/c1cccc(OC(F)(F)F)c1)N1C(=O)OC[C@@H]1c1ccccc1 [Example 29, (S, E)-4-phenyl-3-(3-(3-(trifluoromethoxy)phenyl)acryloyl) oxazolidin-2-one]",change in vivo at 20 mg/kg,[1]; [4],~20%
"O=C(/C=C/c1ccccc1OC(F)(F)F)N1C(=O)OC[C@@H]1c1ccccc1 [Example 30, (S, E)-4-phenyl-3-(3-(2-(trifluoromethoxy)phenyl)acryloyl) oxazolidin-2-one]",change in vivo at 20 mg/kg,[1]; [4],~10%
"O=C(/C=C/c1cccc(-c2ccccc2)c1)N1C(=O)OC[C@@H]1c1ccccc1 [Example 35, (S, E)-3-(3-([1,1′-biphenyl]-3-yl)acryloyl)-4-phenyloxazolidin-2-one]",change in vivo at 20 mg/kg,[1]; [4],~20%
"O=C(/C=C/c1ccc(F)cc1C(F)(F)F)N1C(=O)OC[C@@H]1c1ccccc1 [Example 43, (S, E)-3-(3-(4-fluoro-2-(trifluoromethyl)phenyl)acryloyl)-4-phenyloxazolidin-2-one]",change in vivo at 20 mg/kg,[1]; [4],~20%
"O=C(/C=C/c1ccccc1C(F)(F)F)N1C(=O)OCC1Cc1ccccc1 (stereo not drawn) [Example 57, (E)-4-benzyl-3-(3-(2-trifluoromethylphenyl)acryloyl)oxazolidin-2-one]",change in vivo at 20 mg/kg,[1]; [4],~30%
"O=C(/C=C/c1ccccc1C(F)(F)F)N1C(=O)OC[C@@H]1Cc1ccccc1 [Example 58, (S, E)-4-benzyl-3-(3-(2-trifluoromethylphenyl)acryloyl)oxazolidin-2-one]",change in vivo at 20 mg/kg,[1]; [4],~20%
"O=C(/C=C/c1ccccc1C(F)(F)F)N1C(=O)OC[C@H]1Cc1ccccc1 [Example 59, (R, E)-4-benzyl-3-(3-(2-trifluoromethylphenyl)acryloyl)oxazolidin-2-one]",change in vivo at 20 mg/kg,[1]; [4],~10%
"[2H]C1([2H])OC(=O)N(C(=O)/C=C/c2ccccc2C(F)(F)F)[C@H]1c1ccccc1 [Example 83, (S, E)-4-phenyl-3-(3-(2-trifluoromethylphenyl)acryloyl)oxazolidin-2-one-5,5-d2]",AUC(0-inf),[2]; iv-5 mg/kg,2200 ng·h/mL
same,AUC(0-t),[2]; iv-5 mg/kg,2170 ng·h/mL
same,clearance,[2]; iv-5 mg/kg,37.8 mL/min/kg
same,half-life,[2]; iv-5 mg/kg,1.56 h
same,MRT inf,[2]; iv-5 mg/kg,1.21 h
same,AUC(0-inf),[2]; po-10 mg/kg,767 ng·h/mL
same,AUC(0-t),[2]; po-10 mg/kg,757 ng·h/mL
same,Cmax,[2]; po-10 mg/kg,116 ng/mL
same,Tmax,[2]; po-10 mg/kg,1 h
same,half-life,[2]; po-10 mg/kg,4.08 h
same,bioavailability,[2]; po-10 mg/kg vs iv-5 mg/kg,17.4%
same,MRT inf,[2]; po-10 mg/kg,5.61 h
same,change in vivo at 20 mg/kg,[1]; [4],50 to 60%
"[2H]C1([2H])OC(=O)N(C(=O)/C=C/c2ccccc2OC(F)(F)F)[C@H]1c1ccccc1 [Example 84, (S, E)-4-phenyl-3-(3-(2-trifluoromethoxyphenyl)acryloyl) oxazolidin-2-one-5,5-d2]",change in vivo at 20 mg/kg,[1]; [4],~40%
"[2H]C1([2H])OC(=O)N(C(=O)/C=C/c2cccc(-c3ccccc3)c2)[C@H]1c1ccccc1 [Example 86, (S, E)-3-(3-([1,1′-biphenyl]-3-yl)acryloyl)-4-phenyloxazolidin-2-one-5,5-d2]",change in vivo at 20 mg/kg,[1]; [4],~30%
"[2H]C1([2H])OC(=O)N(C(=O)/C=C/c2ccccc2C(F)(F)F)C1Cc1ccccc1 (stereo not drawn) [Example 104, (E)-4-benzyl-3-(3-(2-trifluoromethylphenyl)acryloyl)oxazolidin-2-one-5,5-d2]",change in vivo at 20 mg/kg,[1]; [4],~40%
